Series [1] relates to root-knot nematode. Put plainly: Open field trial on tomato: root galling assessed with the root galling index (Bridge and Page chart). The format is in vivo.
Source text: The rating method is based on assigning an integer number in the interval from 0 (no knots on the roots) to 10 (all roots severely knotted indicative of plant death).
Treatments 2 and 3 (of the invention): fluensulfone in the form of an emulsifiable concentrate (Nimitz® 480 EC) was applied at the day of planting (DAT=0), followed by a post-plant application twenty five days later (DAT=25). The application method consisted of the following steps. First, the soil was wetted by irrigation water. Then, at the day of planting, appropriate amounts of Nimitz® 480 EC were diluted in water and applied to achieve the application rates tabulated in Table 1. […]
Root galling was assessed in the open-field trial, on DAT=25, 50, and 75, using the root galling index. […]
Series [2] has as its system Tomatoes of Aryman variety. The series can be described thus: Open field trial on tomato: phytotoxicity evaluation. The format is in vivo. The protocol: An open field trial was conducted. Tomatoes of Aryman variety was used. The soil type was sandy loam.
Fertilizers were applied prior to bed formation. Plots were formed, with a total area of 25 m^2 per plot. Drip lines were laid in the plot beds (plot beds occupy half the field). Treatments were arranged in a randomized complete block design with two replications.
Fluensulfone emulsifiable concentrate (Nimitz® 480 EC) was used for the fluensulfone treatments. Additionally, comparative nematicides fluopyram (as Fluopyram® 500 SC) and carbofuran (as Carbofuran® 3% CG), were tested. Untreated control plots were formed for comparison.
In Table 1, time of application is expressed by DAT, which indicates the number of days relative to the date of planting.
Treatments 2 and 3 (of the invention): fluensulfone in the form of an emulsifiable concentrate (Nimitz® 480 EC) was applied at the day of planting (DAT=0), followed by a post-plant application twenty five days later (DAT=25). The application method consisted of the following steps. First, the soil was wetted by irrigation water. Then, at the day of planting, appropriate amounts of Nimitz® 480 EC were diluted in water and applied to achieve the application rates tabulated in Table 1. It was repeated on DAT=25. […]
Phytotoxicity was evaluated on DAT=7, 21, 32, and 46. […]

We go through 2 compounds from US20250324972A1, “METHOD OF CONTROLLING NEMATODES” (priority 2022, published 2025).

For `O=S(=O)(CCC(F)=C(F)F)c1ncc(Cl)s1` [fluensulfone, 5-chloro-2-(3,4,4-trifluoro-but-3-ene-1-sulfonyl)-1,3-thiazole], the “average root galling indexes (RGI)” value in series [1] (application initiated on the day of planting/transplanting, even seventy days after planting/transplanting) is listed as “below 3”. Further, in series [1] (method of the invention, at least over 50 days and even 75 days after planting), the root galling index entry is recorded as “below 2”. Further, the Phytotoxicity entry in series [2] (entire range of application rates tested, evaluated on DAT=7, 21, 32, and 46) is recorded as “No phytotoxicity was observed”.

In series [2] (evaluated on DAT=7, 21, 32, and 46, fluopyram 500 SC 0 DAT @ 1250 ml/ha), `O=C(NCCc1ncc(C(F)(F)F)cc1Cl)c1ccccc1C(F)(F)F` [fluopyram] came in with a Phytotoxicity score of 65.
